According to patent publication US8841325B2, “Immunomodulatory compounds for the restoration of vitamin D sensitivity in vitamin D resistant tumor cells” (Celgene Corporation, priority 2009, dated 2014):

Tests used:
[1] = system: MDA-MB-231 cells; test: Cell viability by neutral red assay, MDA-MB-231; format: cell-based; conditions: for effect on cell viability: up to 6 days
Procedure: (§1) Cells were seeded in 24 wells plates at a density of 10^4 cells per well and allowed to adhere for 24 hours. […] The drug was renewed every 2 days. Cell viability was then determined by neutral red assay, measuring absorbance at 550 nm.
(§2) After 6 days treatment, cells were seeded into 24 well plates at a density of 1×10^4 cells/wells. After 24 h, cells were treated with reagents or vehicle for up to six days. At the end of the incubation period, medium was removed and cells were incubated with neutral red solution (40 μg/ml in phenol red and serum free DMEM) for 2 h at 37° C. After removal of the neutral red solution, wells were rinsed once with 1 ml 4% formal saline containing 0.5% CaCl2. Plates were inverted on paper towel to drain and 200 μl of elution fluid (1% acetic acid in 50% ethanol) was added. Following incubation at room temperature for 30 min with gentle shaking, absorbance at 550 nm was determined
(§3) To accomplish this, cells were treated for up to 6 days with different concentrations of a BCL-2 inhibitor, ABT-263 ([…]). Non-treated cells were used as a control. After 6 days of treatment, cell viability was measured by neutral red assay (FIG. 16). In the three cell lines, BCL-2 inhibition leads to cell death. The IC50 is almost equivalent in all cell lines (1 μM+/−0.2 μM).
(§4) More particularly, FIG. 16 illustrates the effects of BCL-2 inhibition on MCF-7VD^R and HBL-100 viability. MDA-MB-231, MCF-7/VD^R and HBL-100 cells were treated for up to 6 days with different concentrations of ABT-263 (0.2 up to 20 μM). Non-treated cells were used as a control. After 6 days of treatment, cell viability was measured by neutral red assay. Results are mean of three independent experiments (each made in quadruplicate).

[2] = system: HBL-100 cells; test: Cell viability by neutral red assay, HBL-100; format: cell-based; conditions: up to 6 days
Procedure: as §2
In order to validate the previous results obtained in MDA-MB-231 cells, two other vitamin D resistant cell lines MCF-7/VD^R and HBL-100 cells, were investigated. First the effect of lenalidomide on these cells lines were investigated. To this end, cells were treated for up to 6 days with different concentrations of lenalidomide (0 μM up to 10 μM). Cell viability was measured by neutal red dye assay (FIG. 13).
(§5) More particularly, FIG. 13 illustrates the effects of lenalidomide treatment on MCF-7/VDR and HBL-100 viability. MCF-7/VDR and HBL-100 cells were treated for up to 6 days with different concentrations of lenalidomide (0 μM up to 10 μM). Cell viability was measured by neutral red dye assay. Results are mean of three independent experiments (each made in quadruplicate).
Cell viability was measured by neutral red dye assay (FIG. 14).
as §5, with “14” for “13”, “lenalidomide/1, 25-D3 co-treatment” for “lenalidomide treatment”, “(0.01” for “(0”, “1 μM) alone or in combination with different concentrations of 1, 25-D3 (0 for up to 1000 nM).” for “10 μM).”
as §3, §4

[3] = system: breast cancer cell lines; conditions: literature (Colston et al.); cited from earlier work
[4] = system: HBL-100 cells; test: BCL-2 expression by immunoblotting, HBL-100; format: cell-based; conditions: 1 μM lenalidomide and 100 nM 1,25-D3 alone or in combination, 6 days, FIG. 15
Procedure: It has been shown in this paper that BCL-2 inhibition of expression seems to be a key event for the restoration of a sensitive vitamin D sensitive phenotype in MDA-MB-231. […] Cells were also treated with 0.1% DMSO as a control. Whole cells extracts were prepared and analysed by immuoblotting BCL-2 antibody. β-actin was used as a loading control.
More particularly, FIG. 15 illustrates the effects of co-treatment lenalidomide/1, 25-D3 on BCL-2 expression in MCF-7VDR and HBL-100 cells. MCF-7/VDR and HBL-100 cells were treated for up to 6 days with 1 μM lenalidomide and 100 nM 1, 25-D3 alone or in combination. Cells were also treated with 0.1% DMSO a control. Whole proteins were extracted and probes for BCL-2. β-actin was used as a loading control. Representative blots for the three experiments are shown.

[5] = system: MCF-12A cells; test: Cell viability by neutral red assay, MCF-12A; format: cell-based
Procedure: as §1, §2

[6] = system: MDA-MB-231 cells; test: Annexin V/PI staining analysed by FACS; format: cell-based; conditions: for necrosis and apoptosis activation (propidium iodide and Annexin V staining): 1 μM lenalidomide or 100 nM 1,25-D3 alone; for necrosis and apoptosis activation (propidium iodide and Annexin V staining) / apoptosis assessed by Annexin V or PI staining: up to 6 days; for apoptosis assessed by Annexin V or PI staining: single agent: 1 nM compound or 100 nM 1,25 D3 alone
Procedure: Cells were seeded into 6 well plates at a density of 2×10^6 cells/well. Cells were treated with 1 μl/mL DMSO (control) or 1 nM 1-oxo-2-(2,6-dioxopiperidin-3-yl)-4-aminoisoindoline and 100 nM 1,25 D3, each alone or in combination for up to 6 days. Medium was removed by EDTA treatment, and cells were washed twice with ice-cold PBS. Cells were then resuspended into the buffer at a dilution of 1×10^6 cells/mL. 10^5 cells were then stained with Annexin V and Propidium Iodide (“PI”). Staining was analyzed by FACS. Results were expressed as the percentage of control Annexin V or PI staining where the control was cells treated with DMSO only. Results were from triplicate wells.
To assess the nature of MDA-MB-231 cell death (apoptosis or necrosis) induced by co-treatment of lenalidomide/1, 25-D3 cells were seeded into 25 cm2 flasks at a density of 2×10^6 cells/flask. […] Medium was removed by EDTA treatment and cells were washed twice with ice-cold PBS. Cells were then resuspended into the buffer at a dilution of 1×10^6 cells/ml. 10^5 cells were then stained with Annexin V and Iodure Propidium. Staining was analysed by FACS.
Cells were also treated with 0.1% DMSO as a control. […] Cells treated with 0.1% DMSO were used as a control (day 0). Cell lysates were probed for cleaved-PARP(C-PARP) and total PARP (T-PARP). Data shown are representative of three identical experiments.

[7] = system: MCF-7/VD^R cells; test: BCL-2 expression by immunoblotting, MCF-7/VD^R; format: cell-based; conditions: 1 μM lenalidomide and 100 nM 1,25-D3 alone or in combination, 6 days, FIG. 15
Procedure: Cells were also treated with 0.1% DMSO as a control. Whole cells extracts were prepared and analysed by immuoblotting BCL-2 antibody. β-actin was used as a loading control.
Cells were also treated with 0.1% DMSO a control. Whole proteins were extracted and probes for BCL-2. β-actin was used as a loading control.

[8] = 1,25 D3 0-100 nM, 7 days, FIG. 1
[9] = lenalidomide 0.01-1 μM alone or in combination with 1,25-D3 0-1000 nM, FIG. 14, p>0.05

C=C1/C(=C\C=C2/CCC[C@]3(C)[C@@H]([C@H](C)CCCC(C)(C)O)CC[C@@H]23)C[C@@H](O)C[C@@H]1O [1,25-D3, 1α,25-dihydroxyvitamin D3]
effect on cell viability ([1]; 100 nM 1,25-D3 or 1 μM IMiD alone): no effect
sensitivity of cell viability to vitamin D agent treatment [1, 8]: resistant
differences in viability [2, 9]: No significant differences
IC50 values [3]: in the nM region
effects on BCL-2 expression [4]: no effects
inhibition of viability ([5]; 100 nM 1,25-D3 alone, up to 6 days, FIG. 7A): 35%
sensitivity of cell viability to vitamin D agent treatment [5, 8]: showed sensitivity
necrosis and apoptosis activation (propidium iodide and Annexin V staining) ([6]; FIG. 8B): no effects
apoptosis assessed by Annexin V or PI staining ([6]; FIG. 5): no significant increase in apoptosis

Nc1cccc2c1CN(C1CCC(=O)NC1=O)C2=O (stereo not shown) [Lenalidomide, 1-oxo-2-(2,6-dioxopiperidin-3-yl)-4-aminoisoindoline]
effect on cell viability ([1]; single agent, Thalidomide 0.01-100 μM, CC-4047 and lenalidomide 0.001-10 μM, FIG. 6A): do not Affect
differences in viability ([2]; lenalidomide 0 μM up to 10 μM, FIG. 13, p>0.05): No significant differences
differences in viability [2, 9]: No significant differences
effects on BCL-2 expression [7]: no effects
effects on BCL-2 expression [4]: no effects
effect on cell viability ([5]; single agent, up to 6 days, Thalidomide 0.01-100 μM, CC-4047 and lenalidomide 0.001-10 μM, FIG. 6A): do not Affect
apoptosis assessed by Annexin V and PI staining ([6]; 1 nM compound in combination with 100 nM 1,25 D3, up to 6 days, FIG. 5): significant increase in apoptosis
Annexin V staining ([6]; 1 μM lenalidomide co-treatment with 100 nM 1,25-D3, up to 6 days, FIG. 8B): Annexin V staining was observed
necrosis and apoptosis activation (propidium iodide and Annexin V staining) ([6]; FIG. 8B): no effects
apoptosis assessed by Annexin V or PI staining ([6]; FIG. 5): no significant increase in apoptosis
